{"source": "patent US12246009B2", "about": "“Compositions and methods for treating neurodegenerative, myodegenerative, and lysosomal storage disorders” (GEORGETOWN UNIVERSITY, priority 2018, dated 2025)", "key": {"B35 cells": {"tested_on": "B35 cells", "assay": "MTT assay, cell viability", "format": "cell-based, rat", "conditions": "1 μM, 16 hours of treatment, compared to control", "description": "Rat neuroblastoma B35 cells were grown in Dulbecco's Modified Eagle's Medium (DMEM) with 10% Fetal Bovine Serum (FBS) and 1% penicillin/streptomycin and incubated at 37° C. with 5% CO2. For the experiments, cells were transferred to 12-well plates (Cat. #150628, ThermoFisher, Waltham, MA) and grown to at least 70% confluence. Transient transfection was performed with 3 μg P301 L tau (Cat. #30145, Addgene) cDNA or 3 μg human α-synuclein cDNA using Fugene HD transfection reagent (Cat. #E2311, Promega, Madison WI) for 24 hours. Cells were treated with 1 mM, 100 μM, 10 μM, 1 μM, 0.1 μM, 0.01 μM, and 0.001 μM dissolved in DMSO or an equivalent 5 ul of DMSO for 5 hours. Cell culture media was collected and cells were harvested using sodium-tris, EDTA, NP-40 (STEN) buffer and centrifuged at 10,000×g for 20 minutes at 4′C and supernatant was collected. Cell viability was determined via lactate dehydrogenase assay (Cat. #88954, Thermofisher) and MTT assay (Cat. #V13154, Thermofisher). […]\nTo measure cell viability, cells were incubated with 500 μL of Dulbecco's Modified Eagle's Medium (DMEM) containing 50 μL of (3-[4,5-dimethylthiazol-2-yl]-2,5-diphenyl-tetrazolium bromide (MTT)) for 4 hours at 37° C. and 5% CO2. […] Absorbance was read against a blank containing 125 uL of media and MTT, and 250 uL of DMS at 570 nm."}, "APP mice": {"tested_on": "APP mice", "assay": "Morris Water Maze test in APP mice", "format": "in vivo, mouse", "conditions": "1.25 mg/kg, trend, no significant difference between groups"}, "α-synuclein": {"tested_on": "α-synuclein", "assay": "α-synuclein ELISA in α-synuclein-transfected B35 cells", "format": "cell-based, rat", "conditions": "transfected B35 cell culture model, doses 10 uM-1 mM", "description": "Rat neuroblastoma B35 cells were grown in Dulbecco's Modified Eagle's Medium (DMEM) with 10% Fetal Bovine Serum (FBS) and 1% penicillin/streptomycin and incubated at 37° C. with 5% CO2. For the experiments, cells were transferred to 12-well plates (Cat. #150628, ThermoFisher, Waltham, MA) and grown to at least 70% confluence. Transient transfection was performed with 3 μg P301 L tau (Cat. #30145, Addgene) cDNA or 3 μg human α-synuclein cDNA using Fugene HD transfection reagent (Cat. #E2311, Promega, Madison WI) for 24 hours. Cells were treated with 1 mM, 100 μM, 10 μM, 1 μM, 0.1 μM, 0.01 μM, and 0.001 μM dissolved in DMSO or an equivalent 5 ul of DMSO for 5 hours. Cell culture media was collected and cells were harvested using sodium-tris, EDTA, NP-40 (STEN) buffer and centrifuged at 10,000×g for 20 minutes at 4′C and supernatant was collected. Cell viability was determined via lactate dehydrogenase assay (Cat. #88954, Thermofisher) and MTT assay (Cat. #V13154, Thermofisher). Protein was extracted by removing culture medium and adding 0.2 ml 1× STEN buffer (50 mM. Tris (pH 7.6), 150 mM NaCl, 2 mM EDTA, 0.2% NP-40, 0.2% BSA, 20 mM. PMSF and protease cocktail inhibitor) to cell layer and incubated on ice for 10 minutes. The bottom of the well was scraped and allowed to incubate on ice for an additional 10 minutes. Cell lysates were collected, stored at −80° C., and used for additional analyses.\nTo perform transient transfection of α-synuclein into the rat neuroblastoma B35 cells FuGene® HD Transfection Reagent (Promega Corporation, Madison, WI) was used. Cells were grown in 12-well dishes. […]\nHuman α-synuclein and p-tau ELISA were performed using 50 μl (1 μg/4 μl) of cell lysates detected with 50 μl primary antibody (3 h) and 100 μl anti-rabbit secondary antibody (30 min) at RT. α-Synuclein levels were measured using human specific ELISA (Invitrogen Inc., Carlsbad, CA) according to manufacturer's protocols. Tau was measured using specific tau at serine 396 according to manufacturer's protocol. […]"}, "phosphorylated Tau (AT8)": {"tested_on": "phosphorylated Tau (AT8)", "assay": "Phosphorylated Tau (AT8) immunoblot in rTG4510 mice", "format": "in vivo, mouse", "conditions": "all three doses (1.25, 2.5, 5 mg/kg) i.p., 7 days"}, "pTau (181) [1]": {"tested_on": "pTau (181)", "assay": "pTau (181) ELISA in pTau transfected B35 cells", "format": "cell-based, rat", "conditions": "24 hour transfection"}, "DDR1": {"target": "T1, DDR1 (Mus musculus, UniProt Q03146)", "T1 construct": "Brains were collected and homogenized in 1.0 ml 1× STEN buffer; from tissue; host or cells: brain of rTg4510 or TgAPP mice", "T1 sequence (Q03146 20-911)": "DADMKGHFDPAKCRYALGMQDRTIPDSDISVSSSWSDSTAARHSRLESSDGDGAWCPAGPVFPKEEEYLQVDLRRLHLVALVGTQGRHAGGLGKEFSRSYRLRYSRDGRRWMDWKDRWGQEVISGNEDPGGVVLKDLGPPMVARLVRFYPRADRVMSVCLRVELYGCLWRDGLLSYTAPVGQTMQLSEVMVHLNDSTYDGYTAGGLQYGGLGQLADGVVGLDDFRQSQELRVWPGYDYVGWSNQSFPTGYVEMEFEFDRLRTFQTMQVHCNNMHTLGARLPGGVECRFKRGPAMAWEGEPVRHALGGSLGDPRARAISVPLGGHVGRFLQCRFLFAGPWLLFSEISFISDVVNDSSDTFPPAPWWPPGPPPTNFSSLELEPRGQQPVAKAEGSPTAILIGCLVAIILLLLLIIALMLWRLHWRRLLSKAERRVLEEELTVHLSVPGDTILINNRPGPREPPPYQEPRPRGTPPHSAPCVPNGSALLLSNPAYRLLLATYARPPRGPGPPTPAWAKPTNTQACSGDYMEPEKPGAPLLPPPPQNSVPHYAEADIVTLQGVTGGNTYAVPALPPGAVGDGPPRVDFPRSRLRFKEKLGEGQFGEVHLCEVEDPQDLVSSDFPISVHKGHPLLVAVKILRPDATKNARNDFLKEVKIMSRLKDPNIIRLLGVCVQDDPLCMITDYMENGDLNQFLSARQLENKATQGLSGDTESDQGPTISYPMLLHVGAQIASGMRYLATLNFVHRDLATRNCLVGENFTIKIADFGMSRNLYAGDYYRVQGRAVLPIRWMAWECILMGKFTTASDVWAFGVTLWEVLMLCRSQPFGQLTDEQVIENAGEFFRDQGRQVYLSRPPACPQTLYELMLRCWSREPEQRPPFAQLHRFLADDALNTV", "assay": "Phosphorylated DDR1 immunoblot in transgenic APP mice", "format": "in vivo", "conditions": "21 days"}, "human alpha-synuclein": {"tested_on": "human alpha-synuclein", "assay": "Human alpha-synuclein ELISA and immunoblot in A53T mice", "format": "in vivo, mouse", "conditions": "2.5 mg/kg i.p.; for alpha-synuclein level in A53T mice: vs DMSO"}, "[2]": {"tested_on": "human phosphorylated tau (Ser396)", "assay": "Human phosphorylated tau (Ser396) ELISA in transgenic APP mice", "format": "in vivo, mouse", "conditions": "2.5 mg/kg i.p., 21 days"}, "pTau (181) [3]": {"tested_on": "pTau (181)", "assay": "pTau (181) ELISA/Xmap in Tau expressing transgenic (rTG4510) mice", "format": "in vivo, mouse"}}}
{"smiles": "Cc1cccc(-c2cc3nccc(Nc4ccccc4)c3s2)c1", "note": "[BK40143, N-Phenyl-2-(m-tolyl)thieno[3,2-b]pyridin-7-amine]", "values": [{"measurement": "MTT, neuroprotective effect", "setting": "B35 cells", "result": "increase"}, {"measurement": "distance travelled before first entry to the platform, Morris Water Maze", "setting": "APP mice", "result": "lower distance travelled before the first entry"}, {"measurement": "latency to the first entry, Morris Water Maze", "setting": "APP mice", "result": "lower latency to first entry"}, {"measurement": "number of platform entries, Morris Water Maze", "setting": "APP mice", "result": "higher numbers of platform entries"}, {"measurement": "level of alpha-synuclein", "setting": "α-synuclein", "result": "appear to reduce the level of alpha-synuclein"}, {"measurement": "reduction of phosphorylated Tau (AT8), immunoblot", "setting": "phosphorylated Tau (AT8)", "result": "41-49%"}, {"measurement": "pTau (181) levels", "setting": "pTau (181) [1]", "result": "reduces pTau (181) levels"}, {"measurement": "deactivation of DDR1 (phosphorylated DDR1 immunoblot)", "setting": "DDR1; 1.25 mg/kg i.p.", "result": 40, "unit": "%"}, {"measurement": "deactivation of DDR1 (phosphorylated DDR1 immunoblot)", "setting": "DDR1; 2.5 mg/kg i.p.", "result": 31, "unit": "%"}, {"measurement": "reduction in the level of human alpha-synuclein, ELISA", "setting": "human alpha-synuclein; 21 consecutive days, vs DMSO treated A53T mice", "result": 39, "unit": "%"}, {"measurement": "alpha-synuclein level in A53T mice", "setting": "human alpha-synuclein; 21 consecutive days, 2.5 mg/kg", "result": "significantly reduces"}, {"measurement": "alpha-synuclein level in A53T mice", "setting": "human alpha-synuclein; 21 consecutive days, listed as BK-40143, 2.5 mg/kg", "result": "significantly decreased"}, {"measurement": "reduction in alpha-synuclein, immunoblots", "setting": "human alpha-synuclein; 21 days, immunoblots mirrored the ELISA", "result": 40, "unit": "%"}, {"measurement": "reduction of human phosphorylated tau (Ser396)", "setting": "[2]", "result": "over 80%"}, {"measurement": "pTau (181) level, ELISA", "setting": "pTau (181) [3]; Tau expressing transgenic mice, seven days of treatment", "result": "reduces pTau (181)"}, {"measurement": "phosphorylated Tau (AT181), ELISA", "setting": "pTau (181) [3]; rTG4510 mice, 2.5 mg/kg i.p., 7 consecutive days, 2.5 mg/kg", "result": "significantly reduced phosphorylated Tau"}]}
